Source: US7575857B2, “Screening method for identifying protective substances for treating neurodegenerative and/or ischemic disorders” (SYGNIS Bioscience GmbH & Co. KG, priority 2002, dated 2009)
Several values for one entry are separate records, joined by “and”; a condition that tells them apart may be missing. Equal values may be shown once.

Assays:
[1] = test system: beta globin; experiment: beta globin induction in the animals of the neuroglobin experiment; assay type: in vivo; settings: same animals as neuroglobin test, 5000 units/kg i.p.
Text: (§1) However, it has important biochemical characteristics which fundamentally distinguish it from the globins, e.g. a far higher oxygen affinity (Dewilde et al. (2001), Journal of Biological Chemistry, 276, 38949-55). Neuroglobin is neuroprotective, although the mechanism here is not known (Sun et al. (2001), Proc. Natl. Acad. Sci. USA, 98, 15306-11, Venis (2001), Lancet, 358, 2055, Sun et al. (2003), Proc. Natl. Acad. Sci. USA, 5, 5). To determine whether neuroglobin possibly also plays a role in erythropoetin-conveyed neuroprotection, the relative content of neuroglobin mRNA after EPO administration was determined using relative quantitative PCR in comparison with cyclophilin. 5000 units of EPO/kg body weight were applied i.p. and the animals were killed after transcardial perfusion. RNA and cDNA were obtained using standard methods. From serial dilutions of the cDNA (3 times serial dilutions), the levels of cyclophilin and neuroglobin were determined and the ratio of neuroglobin/cyclophilin in the sham-treated animals set at 1. The standard deviations in the following values relate to measurements at different dilutions (n=4) and represent the measurement accuracy. The primers used were: ng1_m_LC—1s: […] (SEQ ID NO: 14), ng1_m_LC—1as: […] (SEQ ID NO: 15) for neuroglobin. […]

[2] = test system: alpha globin; experiment: alpha globin induction in the animals of the neuroglobin experiment; assay type: in vivo; settings: same animals as neuroglobin test, 5000 units/kg i.p.
Text: as §1

[3] = test system: neuroglobin mRNA; experiment: Quantitative PCR for neuroglobin mRNA after erythropoetin injection; assay type: in vivo; settings: 5000 units/kg i.p., single injection
Text: as §1

[4] = test system: δ-aminolaevulinic acid synthase (ALAS) mRNA; experiment: Quantitative PCR for ALAS mRNA in brain of EPO-injected animals; assay type: in vivo
Text: The primer sequences used and PCR conditions were, for ALAS:
(annealing temperature: 60 C.; measurement temperature: 83 C.; 45 cycles), and for DALDH: Daldh_m—1 s: […] (SEQ ID NO:12), daldh_m—1 as: […] (SEQ ID NO: 13) (annealing temperature: 60 C.; measurement temperature: 85 C.; 45 cycles).
Through the daily administration of this dosage of EPO for 7 days, induction factors of up to 130 times were achieved: sham: 1±0.64; EPO-injected animal 1 (Epo—1)=11.67±5.46; EPO-injected animal 2 (Epo—2)=118.93±31.02; EPO-injected animal 3 (Epo—3)=44.88±15.15; EPO-injected animal 4 (Epo—4)=129.47±8.77 (FIG. 18).

[5] = test system: haemoglobin; experiment: Haemoglobin concentration in brain homogenate (rapid cyanhaemiglobin method) after one-off i.p. erythropoetin injection; assay type: in vivo, mice; settings: 5000 units/kg i.p., 24 hours after injection, perfused brain, n=3
Experimental: In continuation of Example 3, the haemoglobin concentration was also determined in the brain of mice to whom intraperitoneal erythropoetin (Erypo made by the company Janssen) had been administered (5000 units/kg body weight). After injection of EPO, the mice were terminally anaesthetised after 24 hours by injection with Rompun/Ketanest, and the blood was rinsed out of the vascular system of the brain by transcardial perfusion with 40 ml Hanks balanced salt solution (HBSS). […] The protein content of the samples was determined according to the Bradford method (Bradford, 1976, Anal. Biochem. 72, 248-254). The haemoglobin concentration was measured with the rapid cyanhaemiglobin method (van Kampen and Zijlstra, 1961, Clin. Chim. Acta 6, 538-544). […] The extinction at 546 nm was then measured and multiplied by 36.7 to obtain the concentration in g/dl. These values were then related to the protein concentration/volume brain tissue, giving the following values (including the measured transgenic animals from Example 3): control animals: 32.54±17.51 μg/mg brain protein (n=10); EPO-transgenic animals (line tg6): 79.00±32.12 (n=13); EPO-injected animals (24 hours after injection): 77.14±13.51 μg/mg brain protein (n=3). […]

[6] = 5000 units/kg i.p. daily for 7 days

## Erythropoietin [EPO]
[1]
  beta globin induction: approx. 10 times
[2]
  alpha globin induction: approx. 14 times
[3]
  ratio neuroglobin/cyclophilin mRNA (sham-treated set at 1), individual animals: no induction and 1.01±0.15 and 0.99±0.15 and 1.04±0.13
[4]; [6]
  ALAS induction factors: up to 130 times
  ALAS mRNA level (sham = 1), individual animals: 11.67±5.46 and 118.93±31.02 and 44.88±15.15 and 129.47±8.77
[4]; one-off dose 5000 units/kg i.p., 24 h
  ALAS mRNA level (sham = 1), individual animals: 10.07±0.00 and 8.76±0.18 and 14.69±0.27
[4]; same animals as neuroglobin test, 5000 units/kg i.p.
  ALAS induction: approx. 10 times
[5]
  haemoglobin concentration related to brain protein: 77.14±13.51 μg/mg brain protein
